Results as given in patent publication US20060134022A1, “Salivary stimulatory compositions and method of use thereof” (priority 2004, published 2006).

Test: Self warming mouthwash temperature increase vs. sulfite concentration on mixing sulfite phase with peroxide phase
Format: physicochemical
Details: approximate (plus/minus 2 degrees)
Excerpt: The saliva stimulation effectiveness of the solution depends on raising its temperature before use. This may be done by conventional external heating means. Alternatively the sulfate, bisulfate or pyrosulfate may be produced in situ by utilizing a solution of the corresponding sulfite, bisulfite or metabisulfite and adding a solution of an orally acceptable peroxide thereto. The resulting reaction produces excess heat, thus raising the solution temperature. While the amount of peroxide added is not critical, it is desirable to use at least an amount substantially equivalent to the stoichiometric amount need to oxidize the salts in their reduced forms to the higher oxidation state.
Note: Temperatures are in Fahrenheit Degrees and are approximate (plus/minus 2 degrees).
Sulfite Concentrations listed below are final concentration in the mouthwash. Since the final mouthwash is formed from equal amounts of 2 separate phases, the sulfite concentration in the sulfite containing phase is double that in the final mouthwash.
Combine equal amounts of Phase A and Phase B, Just prior to use, to form the final mouth rinse

[1] = 1% final concentration in the mouthwash
[2] = 2% final concentration in the mouthwash
[3] = 4% final concentration in the mouthwash

| Structure (SMILES) | Final Temp. [1] | Temp. Increase [1] | Final Temp. [2] | Temp. Increase [2] | Final Temp. [3] | Temp. Increase [3] |
| --- | --- | --- | --- | --- | --- | --- |
| O=S([O-])S(=O)(=O)[O-].[Na+].[Na+] [Sodium Metabisulfite] | 97.3 Fahrenheit Degrees | 12.1 Fahrenheit Degrees | 113.2 Fahrenheit Degrees | 27.2 Fahrenheit Degrees | 142.0 Fahrenheit Degrees | 55.9 Fahrenheit Degrees |
| O=S([O-])[O-].[Na+].[Na+] [Sodium Sulfite] | 98.1 Fahrenheit Degrees | 10.2 Fahrenheit Degrees | 110.7 Fahrenheit Degrees | 21.4 Fahrenheit Degrees | 133.5 Fahrenheit Degrees | 43.0 Fahrenheit Degrees |
